Measured values taken from patent US20240382629A1, “HETEROBIVALENT AND HOMOBIVALENT AGENTS TARGETING FIBROBLAST ACTIVATION PROTEIN ALPHA AND/OR PROSTATE-SPECIFIC MEMBRANE ANTIGEN” (The Johns Hopkins University, priority 2021, published 2024).

Tested on: U87 tumor
Assay: PET imaging and tissue biodistribution in U87 tumor-bearing mice
Format: in vivo, mouse
Parameters: Biodistribution: Saliv. Gland: unit not given here
Settings: untitled table, radiolabel and time not given; for Biodistribution: Bladder / Biodistribution: Blood / Biodistribution: Bone / Biodistribution: Fat / Biodistribution: Heart / Biodistribution: Kidney / Biodistribution: Lacrim Gland / Biodistribution: Liver / Biodistribution: Lung / Biodistribution: Muscle / Biodistribution: Pancreas / Biodistribution: Sm Intest / Biodistribution: Spleen / Biodistribution: Stomach / Biodistribution: U87: in %ID/g
Method: Cell uptake assays, flow cytometry, and IHC were performed as described previously. Banerjee et al., 2019; Nimmagadda et al., 2018. PET imaging and biodistribution Sequential PET imaging and biodistribution studies were conducted to quantify and validate PET imaging data. Briefly, tumor-bearing mice were administrated approximately 7.4 MBq of radiotracer in 150 μL saline via tail-vein injection. They were randomized into the indicated groups of 3-4 mice before radiotracer injection.
In Experiment 1, bilateral xenografts of U87 (right flank) and PSMA+ PC3 PIP (left flank) tumors were established in male NSG mice (n=3), which underwent imaging followed by biodistribution over 24 h. […] A biodistribution study was further conducted with U87 tumors at 2 h post-injection (n=3) to compare the tissue distribution properties of ^64Cu-FP-L1 and ^64Cu-FAPI-04.

Structure (SMILES)	Biodistribution: Saliv. Gland	Biodistribution: Bladder	Biodistribution: Blood	Biodistribution: Bone	Biodistribution: Fat	Biodistribution: Heart	Biodistribution: Kidney	Biodistribution: Lacrim Gland	Biodistribution: Liver	Biodistribution: Lung	Biodistribution: Muscle	Biodistribution: Pancreas	Biodistribution: Sm Intest	Biodistribution: Spleen	Biodistribution: Stomach	Biodistribution: U87
N#CC1CCCN1C(=O)CNC(=O)c1ccnc2ccc(OCCCNC(=O)CCc3cn(CC[C@H](NC(=O)c4ccc(F)nc4)C(=O)NCCNC(=O)CN4CCN(CC(=O)O)CCN(CC(=O)O)CCN(CC(=O)O)CC4)nn3)cc12 (stereo partly shown) [SRI-07-56]	7.59 ± 3.44	7.14 ± 3.21	20.47 ± 8.29	4.47 ± 1.71	0.49 ± 0.23	7.16 ± 3.22	5.16 ± 2.02	4.32 ± 1.56	6.87 ± 2.54	10.70 ± 4.41	2.06 ± 0.95	10.62 ± 3.62	9.55 ± 3.91	4.21 ± 1.74	3.73 ± 1.63	5.67 ± 2.42
N#C[C@@H]1CCCN1C(=O)CNC(=O)c1ccnc2ccc(OCCCNC(=O)C(CCNC(=O)c3ccc(F)nc3)NC(=O)CN3CCN(CC(=O)O)CCN(CC(=O)O)CCN(CC(=O)O)CC3)cc12 (stereo partly shown) [SRI-08-15]	8.95 ± 0.98	1.67 ± 0.32	3.92 ± 0.39	5.97 ± 1.02	0.92 ± 0.21	1.97 ± 0.34	2.65 ± 0.27	8.01 ± 1.01	2.73 ± 0.64	2.90 ± 0.24	3.03 ± 0.63	7.33 ± 1.73	3.85 ± 0.77	1.59 ± 0.57	1.42 ± 0.56	20.41 ± 3.28
N#C[C@@H]1CCCN1C(=O)CNC(=O)c1ccnc2ccc(OCCCNC(=O)CCOCCOCCOCCNC(=O)C(CCNC(=O)c3ccc(F)nc3)NC(=O)CN3CCN(CC(=O)O)CCN(CC(=O)O)CCN(CC(=O)O)CC3)cc12 (stereo partly shown) [SRI-08-27]	6.40 ± 1.30	1.18 ± 0.13	12.65 ± 2.31	2.83 ± 0.36	0.45 ± 0.16	5.39 ± 1.11	3.98 ± 0.66	4.62 ± 1.02	5.15 ± 0.75	7.76 ± 1.31	1.55 ± 0.43	7.20 ± 3.00	6.28 ± 2.63	2.59 ± 0.49	1.83 ± 0.66	6.56 ± 1.76
N#CC1CCCN1C(=O)CNC(=O)c1ccnc2ccc(OCCCNC(=O)CCc3cn(CCCC[C@H](NC(=O)c4ccc(F)nc4)C(=O)NCCNC(=O)CN4CCN(CC(=O)O)CCN(CC(=O)O)CCN(CC(=O)O)CC4)nn3)cc12 (stereo partly shown) [SRI-08-35]	7.49 ± 1.17	1.59 ± 0.32	15.40 ± 1.08	3.75 ± 0.43	0.56 ± 0.20	7.04 ± 0.93	5.47 ± 0.73	5.27 ± 1.52	6.13 ± 0.67	9.40 ± 1.61	1.94 ± 0.74	10.46 ± 2.88	8.20 ± 2.20	3.08 ± 0.27	2.17 ± 0.30	7.84 ± 1.95
